Values after ≈ are worked out from the molar mass of the structure shown.

Assay [1] relates to E. coli clinical isolates. Briefly: microbe, parasite or virus in culture. In outline:
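MIC90 from CLSI broth microdilution (M07-A9) in two clinical-isolate panels. US panel (331 isolates, 2010-2012): AA139 diluted in 0.01% acetic acid/0.1% BSA. Worldwide panel (445 isolates, 2011-2013, four regions): CAMHB, with 0.002% Tween 80 added for AA139 and polymyxin B.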

In another assay the test system is P. aeruginosa. As to conditions: P. aeruginosa ATCC 27853; quality control range printed beside broth microdilution MIC of parent strain; cited from earlier work. (Broth dilution looks for growth in wells or tubes with falling amounts of substance.)
[2] abbreviates: Worldwide isolates 2011-2013, E. coli n = 112.

With `C[C@@H](O)[C@H]1C(=O)N2C(C(=O)O)=C(S[C@@H]3CN[C@H](C(=O)N(C)C)C3)[C@H](C)[C@H]12` [Meropenem, meropenem, reference compound], the MIC90 in assay [1] (Escherichia coli, US isolates 2010–2012, E. coli MDR, n = 31) was 16 µg/mL (≈ 41.7 µM); in assay [1] (Escherichia coli, US isolates 2010–2012, E. coli Non-MDR, n = 24) it was 0.03 µg/mL (≈ 0.0782 µM); in assay [1] (setting [2]), 0.03 µg/mL (≈ 0.0782 µM). Besides, the MIC50 in assay [1] (setting [2]) is at most 0.015 µg/mL. For the same compound, the “MIC Quality control range” value with P. aeruginosa is 0.12 to 1 µg/mL.

Values taken from paper PMC7311426, “An amphipathic peptide with antibiotic activity against multidrug-resistant Gram-negative bacteria” (Nature Communications, 2020).
